# Data: paper PMC3111206, “Phase I study of PD 0332991, a cyclin-dependent kinase inhibitor, administered in 3-week cycles (Schedule 2/1)” (British Journal of Cancer, 2011)
# Like-named read-outs stand apart in the source and are kept apart here.
# Experiments:
# [1] = Phase I dose escalation: dose-limiting toxicities, MTD and RP2D (Schedule 2/1); assay type: in vivo
# Text: This was a phase I, dose-finding, open-label, non-comparative study of PD 0332991 in patients with Rb-positive solid tumours or non-Hodgkin's lymphoma (NHL). […] On the basis of the low frequency of Rb expression in small-cell lung cancer and […] ([Lee et al, 1987]; [Yokota et al, 1988]; [Shimizu et al, 1994]), patients with both tumour types were excluded from the trial.
# The primary objectives of this study were to establish the safety profile of PD 0332991 given in a 3-week treatment cycle by identifying dose-limiting toxicities (DLTs), the maximum administered dose and the maximum tolerated dose (MTD), and to establish the recommended dose for phase II studies (RP2D). Secondary objectives included characterisation of single-dose and steady-state pharmacokinetics (PKs) of oral PD 0332991 and evaluation of preliminary antitumour activity.
# Cohorts of patients received escalating doses of PD 0332991 given daily for 2 weeks, followed by 1 week off treatment (Schedule 2/1). Treatment cycles were repeated until the occurrence of disease progression, unacceptable toxicity or withdrawal of consent.
# Three to four evaluable patients were initially enrolled per dose-escalation cohort, and the cohort expanded to six evaluable patients, if a DLT occurred during the first treatment cycle. […] The MTD was defined as the highest dose level for which the incidence of first-cycle DLT was <2/6. Cohorts receiving the MTD were expanded to include a minimum of 12 patients. […]
# [2] = QTc interval from triplicate electrocardiograms; assay type: in vivo, human; details: Fridericia's correction
# Procedure: Safety was assessed at baseline, at regular intervals throughout the study, and within 1 week following treatment discontinuation by recording AEs, haematological and biochemical parameters, and physical status (including ECOG performance status). Adverse event severity was graded using the National Cancer Institute Common Terminology Criteria for Adverse Events, version 3.0 ([Trotti et al, 2003]). Triplicate electrocardiograms (ECGs) ∼2 min apart were taken at baseline, 3 h post-dose on days 1, 8 and 15 of cycle 1, and on day 15 of subsequent cycles for up to six cycles.
# [3] = Plasma pharmacokinetics, single dose and steady state; assay type: in vivo, human; details: for AUC(0-t): read-out: AUC(0–10), mean (%CV)
# Procedure: Samples for measurement of PK parameters were collected from all patients pre-dose and at intervals up to 10 h post-dose following a single administration (cycle one, day 1) and after repeated dosing (cycle 1, day 8). In cycle 1, three additional blood samples for PK analysis were collected during the 7-day interval without treatment on days 15, 16 and 17. In addition a sample was collected from patients in the expanded MTD cohort 24 h post-dose on cycle 1, day 1. Urine PK assessments (0–10 h post-dose) were carried out on cycle 1, day 1 in patients in the expanded cohort. Blood draws for PK assessment were also obtained at the same time as ECG testing at the projected time-to-first occurrence of the maximum observed plasma concentration (Cmax). Individual area under the concentration–time curve (AUC) values estimated based on dose and individual apparent clearance (CL/F) was obtained from population PK modelling. Additional PK parameters assessed were the time-to-first occurrence of Cmax (Tmax), the apparent volume of distribution during the terminal phase (Vz/F), the terminal elimination half-life (t1/2) and the drug accumulation ratio (Rac).
# Pharmacokinetics parameters were determined using non-compartmental analyses (WinNonLin version 4.1; Pharsight, Mountain View, CA, USA). Descriptive statistics for PK parameters were summarised by dosing group, day and cycle.
# [4] = system: platelets; test: Pharmacodynamic Emax modelling of change in platelets vs individual AUC; assay type: in vivo; details: Homo sapiens, Platelet; cycle 1, vs individual AUC, 30 patients; s.e. 16.9; 18.3% CV; read-out: Emax for platelets (change from baseline)
# Procedure: To document the course of changes in absolute neutrophil count (ANC) and platelets over time during the first two cycles of treatment, an exploratory analysis of data available from the weekly safety laboratory tests was carried out. Possible relationships between PD 0332991 exposure and changes in (i) ANC and (ii) platelets were assessed further by fitting a simple model (without baseline) to determine the maximum […] (Emax).
# [5] = system: Rb-negative cell lines; set-up: method as in Fry et al, 2004; details: ref Fry et al, 2004, cited from earlier work
# [6] = system: Rb-negative tumours; set-up: method as in Fry et al, 2004; details: in vivo; ref Fry et al, 2004; cited from earlier work
structure (smiles),measurement,setting,value
CC(=O)c1c(C)c2cnc(Nc3ccc(N4CCNCC4)cn3)nc2n(C2CCCC2)c1=O [PD 0332991],Dose recommended for phase II study,"[1]; human, in vivo",200 mg QD
same,Maximum administered dose,"[1]; human, in vivo, po",225 mg QD
same,Maximum tolerated dose (MTD),"[1]; oral, Schedule 2/1 (14 days on, 7 days off)",200 mg QD
same,Patients with maximum on-treatment QTc ⩾500-msec or >30-msec increase from baseline,[2],no patients
same,"Cmax, mean (%CV)","[3]; human, in vivo, 225 mg",186 (64) ng ml^−1
same,"Tmax, median (range)","[3]; human, in vivo, 225 mg",4.5 (1.0–7.0) h
same,Cmax,"[3]; human, in vivo, 225 mg, Cmax, mean (%CV)",104 ng/mL
same,Tmax,"[3]; human, in vivo, 225 mg, Tmax, median (range)",4 h
same,AUC(0-t),"[3]; human, plasma, oral, 100 mg, plasma, 100 mg QD, Day 1 (n=2 per footnote a)",333 ng·h/mL
same,Cmax,"[3]; human, plasma, oral, 100 mg, plasma, 100 mg QD, Day 1 (n=3), read-out: Cmax, mean (%CV)",44 ng/mL
same,Tmax,"[3]; human, plasma, oral, 100 mg, plasma, 100 mg QD, Day 1 (n=3), read-out: Tmax, median (range)",4 h
same,AUC(0-t),"[3]; human, plasma, oral, 100 mg, plasma, 100 mg QD, Day 8 (n=2 per footnote a)",433 ng·h/mL
same,Cmax,"[3]; human, plasma, oral, 100 mg, plasma, 100 mg QD, Day 8 (n=3), read-out: Cmax, mean (%CV)",58 ng/mL
same,Tmax,"[3]; human, plasma, oral, 100 mg, plasma, 100 mg QD, Day 8 (n=3), read-out: Tmax, median (range)",4 h
same,AUC(0-t),"[3]; human, plasma, oral, 150 mg, plasma, 150 mg QD, Day 1 (n=2 per footnote a)",622 ng·h/mL
same,Cmax,"[3]; human, plasma, oral, 150 mg, plasma, 150 mg QD, Day 1 (n=4), read-out: Cmax, mean (%CV)",78 ng/mL
same,Tmax,"[3]; human, plasma, oral, 150 mg, plasma, 150 mg QD, Day 1 (n=4), read-out: Tmax, median (range)",6 h
same,AUC(0-t),"[3]; human, plasma, oral, 150 mg, plasma, 150 mg QD, Day 8 (n=3)",1600 ng·h/mL
same,Cmax,"[3]; human, plasma, oral, 150 mg, plasma, 150 mg QD, Day 8 (n=3), read-out: Cmax, mean (%CV)",194 ng/mL
same,Tmax,"[3]; human, plasma, oral, 150 mg, plasma, 150 mg QD, Day 8 (n=3), read-out: Tmax, median (range)",7 h
same,AUC(0-t),"[3]; human, plasma, oral, 200 mg, plasma, 200 mg QD, Day 1 (n=19 per footnote a)",525 ng·h/mL
same,Cmax,"[3]; human, plasma, oral, 200 mg, plasma, 200 mg QD, Day 1 (n=20), read-out: Cmax, mean (%CV)",81 ng/mL
same,Tmax,"[3]; human, plasma, oral, 200 mg, plasma, 200 mg QD, Day 1 (n=20), read-out: Tmax, median (range)",5.7 h
same,AUC(0-t),"[3]; human, plasma, oral, 200 mg, plasma, 200 mg QD, Day 8 (n=8)",1400 ng·h/mL
same,Cmax,"[3]; human, plasma, oral, 200 mg, plasma, 200 mg QD, Day 8 (n=8), read-out: Cmax, mean (%CV)",174 ng/mL
same,Tmax,"[3]; human, plasma, oral, 200 mg, plasma, 200 mg QD, Day 8 (n=8), read-out: Tmax, median (range)",4 h
same,Vd/F,"[3]; human, plasma, oral, steady state, 200-mg QD cohort, read-out: Vz/F (apparent volume of distribution), mean",3240 L
same,half-life,"[3]; human, plasma, oral, steady state, 200-mg QD cohort, read-out: t1/2 (terminal elimination half-life), mean (converted)",26.7 h
same,"CL/F, mean","[3]; steady state, 200-mg QD cohort",88.5 l per hour
same,Emax,[4],92.2%
same,Activity against Rb-negative cell lines,[5]; in vitro,no activity
same,Anti-proliferative effect in vitro,[5]; leading to cell-cycle arrest at G1,potent anti-proliferative effect
same,Activity against Rb-negative tumours,[6],without activity
